Data as given in PubChem BioAssay (NCI).
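All cell lines were grown in 96-well plates and treated with compound for 48 hours. TGI: total growth inhibition.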

Tests used:
Experiment in all cases: NCI tumour cell line growth inhibition, 48 h
[1] = tested on: HT29 colon
[2] = tested on: LOX IMVI melanoma
[3] = tested on: RXF 393 renal
[4] = tested on: KM12 colon
[5] = tested on: SF-539 CNS
[6] = tested on: SNB-75 CNS
[7] = tested on: SR leukemia
[8] = tested on: SF-268 CNS
[9] = tested on: HCT-116 colon
[10] = tested on: TK-10 renal
[11] = tested on: MOLT-4 leukemia
[12] = tested on: CCRF-CEM leukemia
[13] = tested on: SK-MEL-5 melanoma
[14] = tested on: OVCAR-8 ovarian
[15] = tested on: M19-MEL melanoma
[16] = tested on: UACC-257 melanoma
[17] = tested on: EKVX NSCLC
[18] = tested on: RPMI-8226 leukemia
[19] = tested on: NCI-H226 lung
[20] = tested on: UACC-62 melanoma
[21] = tested on: K-562 leukemia
[22] = tested on: IGROV1 ovarian
[23] = tested on: DMS 114 small cell lung
[24] = tested on: UO-31 renal
[25] = tested on: OVCAR-4 ovarian
[26] = tested on: ACHN renal
[27] = tested on: 786-0 renal
[28] = tested on: SK-MEL-2 melanoma
[29] = tested on: SF-295 CNS
[30] = tested on: NCI-H23 lung
[31] = tested on: SK-MEL-28 melanoma
[32] = tested on: LXFL 529 NSCLC
[33] = tested on: SW-620 colon
[34] = tested on: COLO 205 colon
[35] = tested on: SNB-78 CNS
[36] = tested on: SN12C renal
[37] = tested on: HL-60(TB) leukemia
[38] = tested on: DMS 273 small cell lung
[39] = tested on: KM20L2 colon
[40] = tested on: A549 NSCLC
[41] = tested on: OVCAR-3 ovarian
[42] = tested on: SK-OV-3 ovarian
[43] = tested on: HCC-2998 colon
[44] = tested on: HOP-62 NSCLC
[45] = tested on: HCT-15 colon
[46] = tested on: SNB-19 CNS
[47] = tested on: A498 renal
[48] = tested on: NCI-H522 lung
[49] = tested on: CAKI-1 renal
[50] = tested on: HOP-92 NSCLC
[51] = tested on: NCI-H460 lung
[52] = tested on: U251 CNS
[53] = tested on: M14 melanoma
[54] = tested on: MCF7 breast
[55] = tested on: BT-549 breast
[56] = tested on: HOP-18 NSCLC
[57] = tested on: T-47D breast
[58] = tested on: MALME-3M melanoma
[59] = tested on: DU-145 prostate
[60] = tested on: MDA-MB-435
[61] = tested on: MDA-MB-231 breast
[62] = tested on: HS 578T breast
[63] = tested on: OVCAR-5 ovarian
[64] = tested on: PC-3 prostate
[65] = tested on: DLD-1 colon

CC1(SCC(N)C(=O)O)CC(=O)NC1=O (configuration not stated)
TGI [1]: > 100 µM
TGI [2]: > 100 µM
TGI [3]: > 100 µM
TGI [4]: > 100 µM
TGI [5]: > 100 µM
TGI [6]: > 100 µM
TGI [7]: > 100 µM
TGI [8]: > 100 µM
TGI [9]: > 100 µM
TGI [10]: > 100 µM
TGI [11]: > 100 µM
TGI [12]: > 100 µM
TGI [13]: > 100 µM
TGI [14]: > 100 µM
TGI [15]: > 100 µM
TGI [16]: > 100 µM
TGI [17]: > 100 µM
TGI [18]: > 100 µM
TGI [19]: > 100 µM
TGI [20]: > 100 µM
TGI [21]: > 100 µM
TGI [22]: > 100 µM
TGI [23]: > 100 µM
TGI [24]: > 100 µM
TGI [25]: > 100 µM
TGI [26]: > 100 µM
TGI [27]: > 100 µM
TGI [28]: > 100 µM
TGI [29]: > 100 µM
TGI [30]: > 100 µM
TGI [31]: > 100 µM
TGI [32]: > 100 µM
TGI [33]: > 100 µM
TGI [34]: > 100 µM
TGI [35]: > 100 µM
TGI [36]: > 100 µM
TGI [37]: > 100 µM
TGI [38]: > 100 µM
TGI [39]: > 100 µM
TGI [40]: > 100 µM
TGI [41]: > 100 µM
TGI [42]: > 100 µM
TGI [43]: > 100 µM
TGI [44]: > 100 µM
TGI [45]: > 100 µM
TGI [46]: > 100 µM
TGI [47]: > 100 µM
TGI [48]: > 100 µM
TGI [49]: > 100 µM
TGI [50]: > 100 µM
TGI [51]: > 100 µM
TGI [52]: > 100 µM

Cc1cc(=O)[nH]c(NN2C(Cl)C(=O)C2c2ccc(O)cc2)n1 (configuration not stated)
TGI [53]: 24.6 µM
TGI [54]: 27.4 µM
TGI [55]: 27.1 µM
TGI [1]: 35.1 µM
TGI [2]: 7.27 µM
TGI [3]: 17.2 µM
TGI [4]: 25 µM
TGI [5]: 24.3 µM
TGI [6]: 7.92 µM
TGI [7]: > 25.6 µM
TGI [8]: 32.3 µM
TGI [9]: 14.3 µM
TGI [56]: 27.8 µM
TGI [10]: 31.7 µM
TGI [11]: > 79.2 µM
TGI [57]: 32.2 µM
TGI [13]: 21.5 µM
TGI [14]: 28.6 µM
TGI [15]: 23.1 µM
TGI [16]: 26.1 µM
TGI [17]: 18.3 µM
TGI [18]: 5.59 µM
TGI [19]: 32.6 µM
TGI [58]: 30.7 µM
TGI [20]: 18.7 µM
TGI [22]: 21.7 µM
TGI [59]: 22.8 µM
TGI [24]: 22.4 µM
TGI [25]: 19 µM
TGI [26]: 22 µM
TGI [27]: 18.2 µM
TGI [28]: 29.5 µM
TGI [29]: 21.4 µM
TGI [31]: 24.1 µM
TGI [60]: 20.5 µM
TGI [32]: 22.2 µM
TGI [33]: 28.9 µM
TGI [34]: 40.7 µM
TGI [35]: 24.2 µM
TGI [36]: 23.5 µM
TGI [37]: 7.69 µM
TGI [38]: 18.1 µM
TGI [39]: 46.5 µM
TGI [40]: 31.2 µM
TGI [41]: 18.9 µM
TGI [42]: 23.4 µM
TGI [43]: 23.3 µM
TGI [61]: 30 µM
TGI [44]: 19 µM
TGI [45]: 15.4 µM
TGI [46]: 23.2 µM
TGI [47]: 21.5 µM
TGI [48]: 32.8 µM
TGI [49]: 20.4 µM
TGI [50]: 29.4 µM
TGI [51]: 18.1 µM
TGI [52]: 18.4 µM
TGI [62]: 51.7 µM
TGI [63]: 35.2 µM
TGI [64]: 26.8 µM

COc1nc(C(=O)O)c(Cl)c(OC)c1Cl
TGI [53]: > 100 µM
TGI [1]: > 100 µM
TGI [3]: > 100 µM
TGI [4]: > 100 µM
TGI [5]: > 100 µM
TGI [7]: > 100 µM
TGI [8]: > 100 µM
TGI [9]: > 100 µM
TGI [10]: > 100 µM
TGI [11]: > 100 µM
TGI [65]: > 100 µM
TGI [12]: > 100 µM
TGI [13]: > 100 µM
TGI [14]: > 100 µM
TGI [15]: > 100 µM
TGI [16]: > 100 µM
TGI [17]: > 100 µM
TGI [18]: > 100 µM
TGI [58]: > 100 µM
TGI [20]: > 100 µM
TGI [22]: > 100 µM
TGI [23]: > 100 µM
TGI [24]: > 100 µM
TGI [25]: > 100 µM
TGI [26]: > 100 µM
TGI [27]: > 100 µM
TGI [28]: > 100 µM
TGI [29]: > 100 µM
TGI [30]: > 100 µM
TGI [31]: > 100 µM
TGI [33]: > 100 µM
TGI [34]: > 100 µM
TGI [36]: > 100 µM
TGI [37]: > 100 µM
TGI [39]: > 100 µM
TGI [40]: > 100 µM
TGI [41]: > 100 µM
TGI [42]: > 100 µM
TGI [43]: > 100 µM
TGI [44]: > 100 µM
TGI [46]: > 100 µM
TGI [47]: > 100 µM
TGI [48]: > 100 µM
TGI [49]: > 100 µM
TGI [50]: > 100 µM
TGI [51]: > 100 µM
TGI [63]: > 100 µM

CN(C)c1ccc(/C=C(/C(=O)O)c2csc(-c3nc(/C(=C\c4ccc(N(C)C)cc4)C(=O)O)cs3)n2)cc1
TGI [53]: > 100 µM
TGI [1]: > 100 µM
TGI [2]: > 100 µM
TGI [3]: > 100 µM
TGI [4]: > 100 µM
TGI [5]: > 100 µM
TGI [6]: > 100 µM
TGI [8]: > 100 µM
TGI [9]: > 100 µM
TGI [10]: > 100 µM
TGI [11]: > 100 µM
TGI [65]: > 100 µM
TGI [12]: > 100 µM
TGI [13]: > 100 µM
TGI [14]: > 100 µM
TGI [15]: > 100 µM
TGI [16]: > 100 µM
TGI [17]: > 100 µM
TGI [18]: > 100 µM
TGI [19]: > 100 µM
TGI [58]: > 100 µM
TGI [20]: > 100 µM
TGI [21]: > 100 µM
TGI [22]: > 100 µM
TGI [23]: > 100 µM
TGI [24]: > 100 µM
TGI [26]: > 100 µM
TGI [27]: > 100 µM
TGI [28]: > 100 µM
TGI [29]: > 100 µM
TGI [30]: > 100 µM
TGI [31]: > 100 µM
TGI [32]: > 100 µM
TGI [33]: > 100 µM
TGI [34]: > 100 µM
TGI [35]: > 100 µM
TGI [36]: > 100 µM
TGI [37]: > 100 µM
TGI [39]: > 100 µM
TGI [40]: > 100 µM
TGI [41]: > 100 µM
TGI [42]: > 100 µM
TGI [43]: > 100 µM
TGI [44]: > 100 µM
TGI [45]: > 100 µM
TGI [47]: > 100 µM
TGI [49]: > 100 µM
TGI [50]: > 100 µM
TGI [51]: > 100 µM
TGI [52]: > 100 µM
TGI [63]: > 100 µM

CC1(C)CC2(S(=O)(=O)c3ccccc3)ON1CC2S(=O)(=O)c1ccccc1 (configuration not stated)
TGI [53]: > 100 µM
TGI [1]: > 100 µM
TGI [2]: > 100 µM
TGI [3]: > 100 µM
TGI [4]: > 100 µM
TGI [5]: > 100 µM
TGI [6]: > 100 µM
TGI [7]: > 100 µM
TGI [8]: > 100 µM
TGI [9]: > 100 µM
TGI [10]: > 100 µM
TGI [11]: > 100 µM
TGI [65]: > 100 µM
TGI [12]: 89.9 µM
TGI [14]: > 100 µM
TGI [15]: > 100 µM
TGI [16]: > 100 µM
TGI [17]: > 100 µM
TGI [18]: > 100 µM
TGI [19]: > 100 µM
TGI [58]: > 100 µM
TGI [20]: > 100 µM
TGI [21]: > 100 µM
TGI [22]: > 100 µM
TGI [23]: > 100 µM
TGI [24]: > 100 µM
TGI [25]: > 100 µM
TGI [26]: > 100 µM
TGI [27]: > 100 µM
TGI [28]: > 100 µM
TGI [29]: > 100 µM
TGI [30]: > 100 µM
TGI [31]: > 100 µM
TGI [32]: > 100 µM
TGI [33]: > 100 µM
TGI [34]: > 100 µM
TGI [36]: > 100 µM
TGI [37]: 78.5 µM
TGI [38]: > 100 µM
TGI [39]: > 100 µM
TGI [40]: > 100 µM
TGI [41]: > 100 µM
TGI [42]: > 100 µM
TGI [43]: > 100 µM
TGI [44]: > 100 µM
TGI [45]: > 100 µM
TGI [46]: > 100 µM
TGI [48]: > 100 µM
TGI [49]: > 100 µM
TGI [51]: > 100 µM
TGI [52]: > 100 µM
TGI [63]: > 100 µM
